Measured values: patent US20100048641A1, “Use of Adenosine A1 and/or Dual A1/2ab Agonists for Production of Medicaments for Treating Diseases” (BAYER HEALTHCARE AG LAW AND PATENTS,PATENTS AND LICENSING, priority 2006, published 2010)
Where a name gives a salt, the structure may show the parent alone.

Assays:
adenosine A2a receptor = target: T1, adenosine A2a receptor (Homo sapiens, UniProt P29274); assay: Indirect determination of adenosine agonism by gene expression (luciferase, cAMP-dependent promoter), A2a cells; assay type: cell-based; details: CHO cells stably transfected with A2a receptor cDNA; 50% of maximum stimulation of luciferase
T1 construct: expressed in transfected cells; host or cells: CHO (Chinese Hamster Ovary) cells, stably transfected
T1 sequence (P29274 whole entry): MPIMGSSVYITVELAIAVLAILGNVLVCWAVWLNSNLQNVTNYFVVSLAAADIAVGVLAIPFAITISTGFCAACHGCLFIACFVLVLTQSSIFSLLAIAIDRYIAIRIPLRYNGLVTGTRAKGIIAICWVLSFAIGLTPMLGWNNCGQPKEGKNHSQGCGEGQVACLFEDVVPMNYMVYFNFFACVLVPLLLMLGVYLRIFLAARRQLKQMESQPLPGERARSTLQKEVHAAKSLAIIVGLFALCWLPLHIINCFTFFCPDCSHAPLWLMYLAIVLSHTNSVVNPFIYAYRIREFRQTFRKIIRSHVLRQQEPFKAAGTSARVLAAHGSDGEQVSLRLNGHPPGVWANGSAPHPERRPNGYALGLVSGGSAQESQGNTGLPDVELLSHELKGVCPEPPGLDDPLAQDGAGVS
From the text: (§1) Indirect Determination of the Adenosine Agonism by Way of Gene Expression
(§2) Cells of the CHO (Chinese Hamster Ovary) permanent cell line are transfected stably with the cDNA for the adenosine receptor subtypes A1, A2a and A2b. The adenosine A1 receptors are coupled to the adenylate cyclase by way of Gi proteins, while the adenosine A2a and A2b receptors are coupled by way of Gs proteins. In correspondence with this, the formation of cAMP in the cell is inhibited or stimulated, respectively. After that, expression of the luciferase is modulated by way of a cAMP-dependent promoter. The luciferase test is optimized, with the aim of high sensitivity and reproducibility, low variance and good suitability for implementation on a robot system, by varying several test parameters, such as cell density, duration of the growth phase and the test incubation, forskolin concentration and medium composition. The following test protocol is used for pharmacologically characterizing cells and for the robot-assisted substance screening:
(§3) The stock cultures are grown, at 37° C. and under 5% CO2, in DMEM/F12 medium containing 10% FCS (foetal calf serum) and in each case split 1:10 after 2-3 days. The test cultures are seeded in 384-well plates with 2000 cells per well and grown at 37° C. for approx. 48 hours. The medium is then replaced with a physiological sodium chloride solution (130 mM sodium chloride, 5 mM potassium chloride, 2 mM calcium chloride, 20 mM HEPES, 1 mM magnesium chloride hexahydrate, 5 mM sodium bicarbonate, pH 7.4). The substances to be tested, which are dissolved in DMSO, are pipetted into the test cultures (maximum final concentration of DMSO in the test mixture: 0.5%) in a dilution series of from 1.1×10^−11M to 3×10^−6M (final concentration). 10 minutes later, forskolin is added to the A1 cells and all the cultures are subsequently incubated at 37° C. for four hours. After that, 35 μl of a solution which is composed of 50% lysis reagent (30 mM disodium hydrogenphosphate, 10% glycerol, 3% TritonX100, 25 mM TrisHCl, 2 mM dithiotreitol (DTT), pH 7.8) and 50% luciferase substrate solution (2.5 mM ATP, 0.5 mM luciferin, 0.1 mM coenzyme A, 10 mM tricine, 1.35 mM magnesium sulfate, 15 mM DTT, pH 7.8) are added to the test cultures, which are shaken for approx. 1 minute and the luciferase activity is measured using a camera system. The EC50 values are determined, i.e., the concentrations at which 50% of the luciferase answer is inhibited in the case of the A1 cell, and, respectively, 50% of the maximum stimulation with the corresponding substance is achieved in the case of the A2b and A2a cells. […] Pharmacol., 357 (1998), 1-9).
(§4) Table 1 below lists the EC50 values of representative working examples of compounds of the formula (IA) for the receptor stimulation on adenosine A1, A2a and A2b receptor subtypes: […]

adenosine A1 receptor = target: T2, adenosine A1 receptor (Homo sapiens, UniProt P30542); assay: Indirect determination of adenosine agonism by gene expression (luciferase, cAMP-dependent promoter), A1 cells; assay type: cell-based; details: CHO cells stably transfected with A1 receptor cDNA; 1 μM forskolin; concentration at which 50% of the luciferase answer is inhibited
T2 construct: expressed in transfected cells; host or cells: CHO (Chinese Hamster Ovary) cells, stably transfected
T2 sequence (P30542 1-326): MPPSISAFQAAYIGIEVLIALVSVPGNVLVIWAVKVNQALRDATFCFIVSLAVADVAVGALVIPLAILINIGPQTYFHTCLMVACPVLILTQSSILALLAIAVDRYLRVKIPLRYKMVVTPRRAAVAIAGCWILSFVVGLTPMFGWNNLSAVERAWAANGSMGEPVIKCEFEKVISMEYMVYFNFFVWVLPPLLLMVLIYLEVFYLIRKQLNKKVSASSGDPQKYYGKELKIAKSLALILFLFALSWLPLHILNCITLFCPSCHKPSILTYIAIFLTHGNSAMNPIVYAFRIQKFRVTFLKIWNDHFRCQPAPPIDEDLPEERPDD
From the text: as §1, §2, §3, §4

adenosine A2b receptor = target: T3, adenosine A2b receptor (Homo sapiens, UniProt P29275); assay: Indirect determination of adenosine agonism by gene expression (luciferase, cAMP-dependent promoter), A2b cells; assay type: cell-based; details: CHO cells stably transfected with A2b receptor cDNA; 50% of maximum stimulation of luciferase
T3 construct: expressed in transfected cells; host or cells: CHO (Chinese Hamster Ovary) cells, stably transfected
T3 sequence (P29275 1-332): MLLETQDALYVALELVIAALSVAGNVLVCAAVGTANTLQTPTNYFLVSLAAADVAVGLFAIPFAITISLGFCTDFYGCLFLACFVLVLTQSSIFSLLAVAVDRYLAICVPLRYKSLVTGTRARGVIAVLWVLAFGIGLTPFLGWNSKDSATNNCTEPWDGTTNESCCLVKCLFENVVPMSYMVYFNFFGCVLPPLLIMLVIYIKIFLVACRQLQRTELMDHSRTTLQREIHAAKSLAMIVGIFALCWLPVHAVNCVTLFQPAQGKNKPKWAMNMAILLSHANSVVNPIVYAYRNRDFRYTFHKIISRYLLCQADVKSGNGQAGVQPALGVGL
From the text: as §1, §2, §3, §4

Compound | EC50 (adenosine A2a receptor) | EC50 (adenosine A1 receptor) | EC50 (adenosine A2b receptor) | melting point
N#Cc1c(N)nc(SCc2csc(Nc3cccc(F)c3)n2)c(C#N)c1-c1ccc(OC[C@@H](O)CO)cc1 [Example 44] | 140 nM | 0.6 nM | 0.3 nM | 
N#Cc1c(N)nc(SCc2csc(Nc3ccc(C(=O)O)cc3)n2)c(C#N)c1-c1ccc(OCCO)cc1 [Example 13, 4-({4-[({6-Amino-3,5-dicyano-4-[4-(2-hydroxyethoxy)phenyl]pyridin-2-yl}thio)methyl]-1,3-thiazol-2-yl}amino)benzoic acid] | 236 nM | 0.2 nM | 0.1 nM | 
COCCOc1ccc(-c2c(C#N)c(N)nc(SCc3csc(Nc4ccc(C)cc4)n3)c2C#N)cc1 [Example 26] | > 3000 nM | 23 nM | 74 nM | 
COc1cc(Nc2nc(CSc3nc(N)c(C#N)c(-c4ccc(OC[C@@H](O)CO)cc4)c3C#N)cs2)ccc1F [Example 39] | 1200 nM | 0.3 nM | 1.4 nM | 
N#Cc1c(N)nc(SCc2csc(Nc3ccc(F)cc3)n2)c(C#N)c1-c1ccc(OCCO)cc1 [Example 8, 2-Amino-6-[({2-[(4-fluorophenyl)amino]-1,3-thiazol-4-yl}methyl)thio]-4-[4-(2-hydroxyethoxy)-phenyl]pyridine-3,5-dicarbonitrile] | 300 nM | 1 nM | 1 nM | 
N#Cc1ccc(Nc2nc(CSc3nc(N)c(C#N)c(-c4ccc(OCCO)cc4)c3C#N)cs2)cc1 [Example 21] | 103 nM | 0.7 nM | 0.5 nM | 
Cc1cccc(Nc2nc(CSc3nc(N)c(C#N)c(-c4ccc(OCC(O)CO)cc4)c3C#N)cs2)c1 (stereo not shown) [Example 2] | 747 nM | 9.9 nM | 6.1 nM | 
N#Cc1c(N)nc(SCc2csc(Nc3cccc(Cl)c3)n2)c(C#N)c1-c1ccc(OC[C@@H](O)CO)cc1 [Example 35] | 142 nM | 0.4 nM | 0.3 nM | 
N#Cc1c(N)nc(SCc2csc(Nc3cccc(Cl)c3)n2)c(C#N)c1-c1ccc(OCC(O)CO)cc1 (stereo not shown) [Example 1, 2-Amino-6-[({2-[(3-chlorophenyl)amino]-1,3-thiazol-4-yl}methyl)thio]-4-[4-(2,3-dihydroxypropoxy)phenyl]pyridine-3,5-dicarbonitrile] |  |  |  | 192 to 194 °C
N#Cc1c(N)nc(SCc2csc(Nc3ccc(F)c(Cl)c3)n2)c(C#N)c1-c1ccc(OC[C@@H](O)CO)cc1 [Example 48] | 140 nM | 0.4 nM | 0.1 nM | 
N#Cc1c(N)nc(SCc2csc(Nc3ccc(F)cc3F)n2)c(C#N)c1-c1ccc(OCCO)cc1 [Example 10, 2-Amino-6-[({2-[(2,4-difluorophenyl)amino]-1,3-thiazol-4-yl}methyl)thio]-4-[4-(2-hydroxyethoxy)phenyl]pyridine-3,5-dicarbonitrile] | > 200 nM | 2 nM | 1 nM | 
N#Cc1c(N)nc(SCc2csc(Nc3ccc(F)cc3)n2)c(C#N)c1-c1ccc(OCCN)cc1 [Example 70, 2-Amino-4-[4-(2-aminoethoxy)phenyl]-6-[({2-[(4-fluorophenyl)amino]-1,3-thiazol-4-yl}methyl)-thio]pyridine-3,5-dicarbonitrile hydrochloride] | > 3000 nM | 2.3 nM | 28 nM | 
